Laboratory results taken from article PMC11820102, “Molecular Dynamics-Assisted Discovery of Novel Phosphodiesterase-5 Inhibitors Targeting a Unique Allosteric Pocket” (Molecules, 2025).

Experiments:
PDE5A1 [1] = target: T1, PDE5A1 (Homo sapiens, UniProt O76074); assay: radiometric 3H-cGMP hydrolysis assay, inhibition ratio at […]; assay type: biochemical; parameters: gene PDE5A; catalytic domain, amino acids 535–860
PDE5A1 [2] = target: T1, PDE5A1; assay: radiometric 3H-cGMP hydrolysis assay, dose-response; assay type: biochemical; parameters: gene PDE5A; catalytic domain, amino acids 535–860
PDE10A = PDE10A (Homo sapiens, UniProt Q9Y233); assay: radiometric 3H-cAMP/3H-cGMP hydrolysis assay, single concentration; assay type: biochemical
Sequence of PDE10A (Q9Y233 whole entry): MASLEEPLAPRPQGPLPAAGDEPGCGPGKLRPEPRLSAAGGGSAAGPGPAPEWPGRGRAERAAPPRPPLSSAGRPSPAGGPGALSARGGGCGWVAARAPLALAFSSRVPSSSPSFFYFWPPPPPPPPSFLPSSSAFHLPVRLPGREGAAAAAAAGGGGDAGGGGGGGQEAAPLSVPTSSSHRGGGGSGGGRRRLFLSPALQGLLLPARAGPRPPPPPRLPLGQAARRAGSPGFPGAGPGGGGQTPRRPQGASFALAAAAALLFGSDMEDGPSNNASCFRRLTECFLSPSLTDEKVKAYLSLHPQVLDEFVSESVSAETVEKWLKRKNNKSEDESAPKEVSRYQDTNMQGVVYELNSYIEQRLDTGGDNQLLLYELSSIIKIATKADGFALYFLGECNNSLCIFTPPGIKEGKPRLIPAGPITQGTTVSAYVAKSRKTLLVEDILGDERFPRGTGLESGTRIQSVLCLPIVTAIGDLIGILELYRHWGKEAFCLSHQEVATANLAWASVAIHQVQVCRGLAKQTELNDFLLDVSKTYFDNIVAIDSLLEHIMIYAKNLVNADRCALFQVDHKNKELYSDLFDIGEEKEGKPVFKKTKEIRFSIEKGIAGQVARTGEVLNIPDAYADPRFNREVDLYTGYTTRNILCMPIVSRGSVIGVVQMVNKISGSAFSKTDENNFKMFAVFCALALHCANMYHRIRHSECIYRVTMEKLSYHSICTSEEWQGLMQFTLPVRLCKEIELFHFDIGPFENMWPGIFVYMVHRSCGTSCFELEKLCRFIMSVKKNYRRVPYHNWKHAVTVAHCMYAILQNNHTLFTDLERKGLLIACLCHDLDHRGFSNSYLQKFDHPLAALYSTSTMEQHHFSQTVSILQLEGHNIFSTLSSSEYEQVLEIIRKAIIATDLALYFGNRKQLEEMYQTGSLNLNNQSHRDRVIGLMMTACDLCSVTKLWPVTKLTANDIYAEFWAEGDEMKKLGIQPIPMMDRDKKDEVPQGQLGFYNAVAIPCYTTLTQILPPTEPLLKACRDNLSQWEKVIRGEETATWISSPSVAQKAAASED

PDE11A = PDE11A (Homo sapiens, UniProt Q9HCR9); assay: as above; assay type: biochemical
Sequence of PDE11A (Q9HCR9 whole entry): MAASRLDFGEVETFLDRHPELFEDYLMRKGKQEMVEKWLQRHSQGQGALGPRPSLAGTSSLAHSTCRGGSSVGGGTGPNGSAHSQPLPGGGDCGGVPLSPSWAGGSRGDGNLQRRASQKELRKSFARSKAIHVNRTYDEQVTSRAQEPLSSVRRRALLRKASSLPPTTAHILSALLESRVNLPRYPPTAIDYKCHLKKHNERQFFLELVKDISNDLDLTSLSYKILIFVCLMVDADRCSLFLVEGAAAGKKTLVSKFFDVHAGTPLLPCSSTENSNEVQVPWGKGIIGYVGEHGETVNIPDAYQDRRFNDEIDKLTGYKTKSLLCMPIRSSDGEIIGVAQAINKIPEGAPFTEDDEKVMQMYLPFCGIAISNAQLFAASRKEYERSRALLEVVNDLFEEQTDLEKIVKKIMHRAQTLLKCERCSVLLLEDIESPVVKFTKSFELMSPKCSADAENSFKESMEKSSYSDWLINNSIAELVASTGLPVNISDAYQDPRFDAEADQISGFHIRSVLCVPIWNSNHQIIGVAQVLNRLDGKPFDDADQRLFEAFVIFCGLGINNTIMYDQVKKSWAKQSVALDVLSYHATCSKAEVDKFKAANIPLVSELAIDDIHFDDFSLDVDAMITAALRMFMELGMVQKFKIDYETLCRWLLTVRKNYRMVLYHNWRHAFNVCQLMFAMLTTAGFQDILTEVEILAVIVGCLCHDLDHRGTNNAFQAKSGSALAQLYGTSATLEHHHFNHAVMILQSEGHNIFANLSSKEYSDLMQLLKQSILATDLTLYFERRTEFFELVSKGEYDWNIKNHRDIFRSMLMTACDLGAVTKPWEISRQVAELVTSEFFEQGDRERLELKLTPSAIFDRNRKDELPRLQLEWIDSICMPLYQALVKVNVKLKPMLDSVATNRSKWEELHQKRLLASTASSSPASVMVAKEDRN

PDE5A1 [3] = target: T1, PDE5A1; parameters: gene PDE5A

Row | SMILES | inhibition at 10 µM (PDE5A1 [1]) | further results
1 | CC1(C2CCc3c(O)c4c(c(O)c3C2)C(=O)c2ccccc2C4=O)OCCO1 (stereo not drawn) [AE-508/36401018] | > 50% | 
2 | COc1cc([N+](=O)[O-])cc2c1C(=O)Nc1ccccc1O2 [AG-205/40649212] | > 50% | 
3 | COc1cccc2c1C(=O)c1c(O)ccc(O)c1C2=O [AG-650/41069360] | > 50% | 
4 | Cc1sc(N)c2c(=O)oc3c4ccccc4ccc3c12 [AI-898/12177002] |  | IC50 (PDE5A1 [2]): 1600 nM; % inhibition at 10 μM (PDE10A): 79; % inhibition at 10 μM (PDE11A): 63
5 | COc1ccc(-c2cc3[nH]nc(N)c3c(=O)[nH]2)cc1 [AR-270/43409613] | > 50% | 
6 | COc1cccc2c1C(=O)/C(=C/c1ccc(N(C)C)cc1)C2 [AT-051/43410123] | > 50% | 
7 | CCCc1nn(C)c2c(=O)[nH]c(-c3cc(S(=O)(=O)N4CCN(C)CC4)ccc3OCC)nc12 [Sildenafil] |  | % inhibition at 10 nM (PDE5A1 [3]): > 50
